IC50 and Ki data for 21 molecules are collected here from patent US20120165319A1, “INHIBITORS OF INTERLEUKIN-1 BETA CONVERTING ENZYME” (VERTEX PHARMACEUTICALS INCORPORATED, priority 1995, published 2012).

Molecules are shown by their SMILES. Structures can show the parent of a compound that is named as a salt.

The subject of test [1] is IL-1β, human peripheral blood mononuclear cells (PBMC). Put plainly: PBMC cell assay: IL-1β assay with human PBMC or enriched adherent mononuclear cells, LPS-stimulated. The class given is cell-based. From the text: IL-1β Assay with a Mixed Population of Human Peripheral Blood Mononuclear Cells (PBMC) or Enriched Adherent Mononuclear Cells
Processing of pre-IL-1β by ICE can be measured in cell culture using a variety of cell sources. Human PBMC obtained from healthy donors provides a mixed population of lymphocyte subtypes and mononuclear cells that produce a spectrum of interleukins and cytokines in response to many classes of physiological stimulators. Adherent mononuclear cells from PBMC provides an enriched source of normal monocytes for selective studies of cytokine production by activated cells.
An initial dilution series of test compound in DMSO or ethanol is prepared, with a subsequent dilution into RPMI-10% FBS media (containing 2 mM L-glutamine, 10 mM HEPES, 50 U and 50 ug/ml pen/strep) respectively to yield drugs at 4× the final test concentration containing 0.4% DMSO or 0.4% ethanol. The final concentration of DMSO is 0.1% for all drug dilutions. A concentration titration which brackets the apparent Ki for a test compound determined in an ICE inhibition assay is generally used for the primary compound screen.
Generally 5-6 compound dilutions are tested and the cellular component of the assay is performed in duplicate, with duplicate ELISA determinations on each cell culture supernatant.
PBMC Isolation and IL-1 Assay:
Buffy coat cells isolated from one pint human blood (yielding 40-45 ml final volume plasma plus cells) are diluted with media to 80 ml and LeukoPREP separation tubes (Becton Dickinson) are each overlaid with 10 ml of cell suspension. After 15 min centrifugation at 1500-1800×g, the plasma/media layer is aspirated and then the mononuclear cell layer is collected with a Pasteur pipette and transferred to a 15 ml conical centrifuge tube (Corning). Media is added to bring the volume to 15 ml, gently mix the cells by inversion and centrifuge at 300×g for 15 min. Resuspend the PBMC pellet in a small volume of media, count cells and adjust to 6×10^6 cells/ml.
For the cellular assay, 1.0 ml of the cell suspension is added to each well of a 24-well flat bottom tissue culture plate (Corning), 0.5 ml test compound dilution and 0.5 ml LPS solution (Sigma #L-3012; 20 ng/ml solution prepared in complete RPMI media; final LPS concentration 5 ng/ml). The 0.5 ml additions of test compound and LPS are usually sufficient to mix the contents of the wells. Three control mixtures are run per experiment, with either LPS alone, solvent vehicle control, and/or additional media to adjust the final culture volume to 2.0 ml. The cell cultures are incubated for 16-18 hr at 37° C. in the presence of 5% CO2.
At the end of the incubation period, cells are harvested and transferred to 15 ml conical centrifuge tubes. After centrifugation for 10 min at 200×g, supernatants are harvested and transferred to 1.5 ml Eppendorf tubes. It may be noted that the cell pellet may be utilized for a biochemical evaluation of pre-IL-1β and/or mature IL-1β content in cytosol extracts by western blotting or ELISA with pre-IL-1β specific antisera.
Isolation of Adherent Mononuclear Cells:
PBMC are isolated and prepared as described above. Media (1.0 ml) is first added to wells followed by 0.5 ml of the PBMC suspension. After a one hour incubation, plates are gently shaken and nonadherent cells aspirated from each well. Wells are then gently washed three times with 1.0 ml of media and final resuspended in 1.0 ml media. The enrichment for adherent cells generally yields 2.5−3.0×10^5 cells per well. The addition of test compounds, LPS, cell incubation conditions and processing of supernatants proceeds as described above.
We have used Quantikine kits (R&D Systems) for measurement of mature IL-1β. Assays are performed according to the manufacturer's directions. Mature IL-1β levels of about 1-3 ng/ml in both PBMC and adherent mononuclear cell positive controls are observed. […]

The target in a further test is T1, ICE (Homo sapiens, UniProt P29466).
T1 sequence (P29466 120-297 limits assumed): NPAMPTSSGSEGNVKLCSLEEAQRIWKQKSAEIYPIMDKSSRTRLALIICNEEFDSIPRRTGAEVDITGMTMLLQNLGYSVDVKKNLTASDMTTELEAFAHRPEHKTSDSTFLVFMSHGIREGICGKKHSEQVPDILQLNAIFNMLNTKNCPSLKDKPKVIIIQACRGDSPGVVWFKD
T1 sequence (P29466 317-404 limits assumed): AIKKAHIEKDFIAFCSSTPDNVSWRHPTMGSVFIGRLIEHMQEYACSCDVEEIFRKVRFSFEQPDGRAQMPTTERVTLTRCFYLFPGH
The test is described as follows: Enzyme assay with UV-visible substrate (visible ICE assay, Succinyl-Tyr-Val-Ala-Asp-pNitroanilide). The class given is biochemical. The protocol:
1. Enzyme Assay with Uv-Visible Substrate
This assay is run using an Succinyl-Tyr-Val-Ala-Asp-pNitroanilide substrate. Synthesis of analogous substrates is described by L. A. Reiter (Int. J. Peptide Protein Res. 12, 87-96 (1994)). The assay mixture contains:
The visible ICE assay is run in a 96-well microtiter plate. Buffer, ICE and DMSO (if inhibitor is present) are added to the wells in the order listed. The components are left to incubate at room temperature for 15 minutes starting at the time that all components are present in all wells. The microtiter plate reader is set to incubate at 37° C. After the 15 minute incubation, substrate is added directly to the wells and the reaction is monitored by following the release of the chromophore (pNA) at 405-603 nm at 37° C. for 20 minutes. A linear fit of the data is performed and the rate is calculated in mOD/min. DMSO is only present during experiments involving inhibitors, buffer is used to make up the volume to 100 μl in the other experiments.
For determination of enzyme inhibition constants (Ki) or the mode of inhibition (competitive, uncompetitive or noncompetitive), the rate data determined in the enzyme assays at varying inhibitor concentrations are computer-fit to standard enzyme kinetic equations (see I. H. Segel, Enzyme Kinetics, Wiley-Interscience, 1975).

The mark [2] stands for this setting: Homo sapiens, PBMC, * = values obtained upon reassay.
The mark [3] stands for this setting: * = values obtained upon reassay.

A word on the IC50: it is the concentration that inhibits the measured activity by half. A high value points to weaker potency. The term Ki denotes a dissociation constant, usually derived from enzyme kinetics or from competition with a known ligand. Read a low Ki as tighter binding. For the molecule `O=C[C@H](CC(=O)O)NC(=O)[C@@H]1CCCN2C(=O)CC[C@H](NC(=O)C3CC3)C(=O)N12` [Compound 413], inhibition in test [1] (setting [2]) was half-maximal at 6.2 µM (IC50). Also, affinity on ICE (Table 5) was put at a Ki of 0.75 µM.

In the case of `COC(=O)Nc1ccc(C(=O)N[C@H]2CCC(=O)N3CCC[C@@H](C(=O)N[C@H](C=O)CC(=O)O)N3C2=O)cc1` [Compound 490], the IC50 in test [1] (setting [2]) is 1 µM. Besides, the Ki at ICE (Table 5) worked out at 0.0043 µM.

In turn, `CC(=O)CC(=O)N1C[C@H](NC(=O)c2ccccc2)C(=O)N(CC(=O)N[C@H](C=O)CC(=O)O)c2ccccc21` [Compound 605g, (3S)-3-[(3S)-2-Oxo-3-benzoylamino-5-acetoacetyl-2,3,4,5-tetrahydro-1H-1,5-benzodiazepin-1-acetylamino]-4-oxo-butyric acid] gave an IC50 in test [1] (setting [2]) of 22.5 µM. Moreover, the Ki at ICE (Table 5) was determined as 0.165 µM.

As for `CCS(=O)(=O)N[C@H]1CCC(=O)N2CCC[C@@H](C(=O)N[C@H](C=O)CC(=O)O)N2C1=O` [Compound 421], the results for the IC50 in test [1] (setting [3]) and in test [1] (setting [2]) were 4.6 µM and 4.3 µM, respectively. The affinity on ICE (Table 5), expressed as Ki, was 0.2 µM.

Molecule `O=C[C@H](CC(=O)O)NC(=O)[C@@H]1CCCN2C(=O)CC[C@H](NC(=O)c3cc4ccccc4o3)C(=O)N12` [Compound 467] registered an IC50 in test [1] (setting [2]) of 1.9 µM. Affinity on ICE (Table 5) was put at a Ki of 0.011 µM.

In the case of `CC(=O)Nc1ccccc1C(=O)N[C@H]1CCC(=O)N2CCC[C@@H](C(=O)N[C@H](C=O)CC(=O)O)N2C1=O` [Compound 430], the IC50 in test [1] (setting [2]) was more than 8 µM. The same molecule returned a Ki on ICE (Table 5) of 0.06 µM.

For `CC(=O)N[C@H]1CCC(=O)N2CCC[C@@H](C(=O)N[C@H](C=O)CC(=O)O)N2C1=O` [Compound 214c, [3S(1S,9S)]3-(9-Acetylamino-6,10-dioxo-1,2,3,4,7,8,9,10-octahydro-6H-pyridazino-[1,2-a][1,2]diazepine-1-carboxamido)-4-oxobutanoic acid], in test [1] (setting [2]), the half-maximal inhibitory concentration (IC50) worked out at 5 µM. The same molecule yielded a Ki on ICE (Table 5) of 1.2 µM.

Take `O=CC(CC(=O)O)NC(=O)CN1C(=O)[C@@H](NCc2ccccc2)CN(C(=O)CCc2ccccc2)c2ccccc21` (stereo partly drawn) [Compound 605v, (3S)3-[(3S)2-Oxo-3-benzylamino-5-(3-phenylpropionyl)-2,3,4,5-tetrahydro-1H-1,5-benzodiazepin-1-acetylamino]-4-oxo-butyric acid trifluoroacetic acid salt]: the IC50 in test [1] (setting [2]) was more than 30 µM. In addition, the Ki at ICE (Table 5) came out at 1.1 µM.

On to `CNC(=O)N[C@H]1CCC(=O)N2CCC[C@@H](C(=O)N[C@H](C=O)CC(=O)O)N2C1=O` [Compound 420], for which the results for the half-inhibitory concentration (IC50) in test [1] (setting [3]) and in test [1] (setting [2]) were more than 8 µM and 8 µM, respectively. In addition, the Ki on ICE (Table 5) stood at 1.2 µM.

With `CC(=O)N1C[C@H](NC(=O)c2ccccc2)C(=O)N(CC(=O)N[C@@H](CC(=O)O)C(=O)c2nc3cc(Cl)cc(Cl)c3o2)c2ccccc21` [Compound 609b, (3S)-3-[(3S)-2-Oxo-3-benzoylamino-5-acetyl-2,3,4,5-tetrahydro-1H-1,5-benzodiazepin-1-acetylamino]-4-(5,7-dichlorobenzoxazol-2-yl)-4-oxo-butyric acid], in test [1] (setting [2]), the IC50 is more than 20 µM. The molecule also yielded a Ki on ICE (Table 5) of 0.027 µM.

Take `CC(=O)C(=O)N1C[C@H](NC(=O)c2ccccc2)C(=O)N(CC(=O)N[C@H](C=O)CC(=O)O)c2ccccc21` [Compound 605i, (3S)-3-[(3S)-2-Oxo-3-benzoylamino-5-acetylcarbonyl-2,3,4,5-tetrahydro-1H-1,5-benzodiazepin-1-acetylamino]-4-oxo-butyric acid]: the IC50 in test [1] (setting [2]) was more than 20 µM. Besides, the Ki on ICE (Table 5) worked out at 0.68 µM.

`CNCC(=O)N1C[C@H](NC(=O)c2cccc3ccccc23)C(=O)N(CC(=O)N[C@H](C=O)CC(=O)O)c2ccccc21` [Compound 650, (3S)-3-[(3S)-2-Oxo-3-(1-naphthoyl)amino-5-(2-methylamino)acetyl-2,3,4,5-tetrahydro-1H-1,5-benzodiazepine-1-acetylamino]-4-oxo-butyric acid] showed an IC50 in test [1] (Homo sapiens, PBMC, Table 17) of 4 µM. At ICE (Table 17), the Ki stood at 0.55 µM.

The molecule `O=C[C@H](CC(=O)O)NC(=O)[C@@H]1CCCN2C(=O)CC[C@H](NC(=O)c3ccc(CO)cc3)C(=O)N12` [Compound 479] had an IC50 in test [1] (setting [2]) of 0.9 µM. For the same molecule, the Ki at ICE (Table 5) was 0.015 µM.

`O=C[C@H](CC(=O)O)NC(=O)[C@@H]1CCCN2C(=O)CC[C@H](NC(=O)c3ccc(Cl)c(Cl)c3)C(=O)N12` [Compound 464] returned an IC50 in test [1] (setting [2]) of 1 µM. This molecule returned a Ki at ICE (Table 5) of 0.0025 µM.

In the case of `CS(=O)(=O)N1C[C@H](NC(=O)c2ccccc2)C(=O)N(CC(=O)N[C@H](C=O)CC(=O)O)c2ccccc21` [Compound 605m, (3S)-3-[(3S)-2-Oxo-3-benzoylamino-5-methanesulfonyl-2,3,4,5-tetrahydro-1H-1,5-benzodiazepin-1-acetylamino]-4-oxo-butyric acid], in test [1] (setting [2]), the IC50 was found to be 20 µM. The molecule further registered a Ki at ICE (Table 5) of 0.65 µM.

As to `COC(=O)N[C@H]1CCC(=O)N2CCC[C@@H](C(=O)N[C@H](C=O)CC(=O)O)N2C1=O` [Compound 419], in test [1] (setting [2]), the IC50 is more than 8 µM. For the same molecule, at ICE (Table 5), the Ki came to 0.28 µM.

As for `O=C[C@H](CC(=O)O)NC(=O)[C@@H]1CCCN2C(=O)CC[C@H](NC(=O)c3ccc(OC(=O)c4ccccc4)cc3)C(=O)N12` [Compound 491], in test [1] (setting [2]), half-maximal inhibition (IC50) required 2.5 µM. The molecule also returned a Ki on ICE (Table 5) of 0.005 µM.

In the case of `O=C[C@H](CC(=O)O)NC(=O)[C@@H]1CCCN2C(=O)CC[C@H](NC(=O)C3CCCCC3)C(=O)N12` [Compound 426], the IC50 in test [1] (setting [3]) was found to be 2.5 µM; in test [1] (setting [2]) it was 4.5 µM. This molecule also returned a Ki at ICE (Table 5) of 0.09 µM.

Regarding `CS(=O)(=O)N[C@H]1CCC(=O)N2CCC[C@@H](C(=O)N[C@@H](CC(=O)O)C(=O)c3ncc(-c4c(Cl)cccc4Cl)o3)N2C1=O` [Compound 220b, [3S(1S,9S)]-4-[5-(2,6-Dichlorophenyl)oxazol-2-yl]-3-(6,10-dioxo-9-methylsulphonylamino-1,2,3,4,7,8,9,10-octahydro-6H-pyridazino[1,2-a][1,2]diazepine-1-carboxamido)-4-oxobutanoic acid], in test [1] (setting [2]), the IC50 came to 2.12 µM. At ICE (Table 5), this molecule had a Ki of 0.6 µM.

In turn, `COc1cccc(C(=O)N[C@H]2CCC(=O)N3CCC[C@@H](C(=O)N[C@H](C=O)CC(=O)O)N3C2=O)c1` [Compound 451] had an IC50 in test [1] (setting [2]) of 1.8 µM. The affinity at ICE (Table 5) corresponds to a Ki of 0.004 µM.

`O=C[C@H](CC(=O)O)NC(=O)[C@@H]1CCCN2C(=O)CC[C@H](NC(=O)c3ccc(F)c(F)c3)C(=O)N12` [Compound 458] yielded an IC50 in test [1] (setting [2]) of 2.9 µM. This molecule also registered a Ki at ICE (Table 5) of 0.02 µM.
